Measured values published in patent US9302999B2, “Substituted triazoles as herbicides” (E. I. DU PONT DE NEMOURS AND COMPANY, priority 2012, dated 2016).

What was measured:
Format in all cases: in vivo
[1] = tested on: velvetleaf (Abutilon theophrasti); assay: Test A pre-/postemergence: velvetleaf; conditions: for Velvetleaf plant response rating: Postemergence; for Plant response rating, Velvetleaf: Preemergence
In short: (§1)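 Plants in loam–sand blend were treated with test chemicals in non-phytotoxic solvent with surfactant, either as preemergence directed soil spray or postemergence at 2–10 cm, one- to two-leaf stage. After about ten days in greenhouse, injury was rated visually against untreated controls on a 0–100 scale (100 = complete control).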

[2] = tested on: ducksalad (Heteranthera limosa); assay: Test B flooded paddy: ducksalad; conditions: Flood; 250 g ai/ha; applied to paddy water at 2-leaf stage; visually evaluated after 13 to 15 days
Experimental: (§2) Seeds selected from rice (Oryza sativa), sedge, umbrella (small-flower umbrella sedge Cyperus difformis), ducksalad (Heteranthera limosa), and barnyardgrass (Echinochloa crus-galli) were grown to the 2-leaf stage for testing. At time of treatment, test pots were flooded to 3 cm above the soil surface, treated by application of test compounds directly to the paddy water, and then maintained at that water depth for the duration of the test.
(§3) Treated plants and controls were maintained in a greenhouse for 13 to 15 days, after which time all species were compared to controls and visually evaluated. Plant response ratings, summarized in Table B, are based on a scale of 0 to 100 where 0 is no effect and 100 is complete control. A dash (-) response means no test result.

[3] = tested on: barnyardgrass (Echinochloa crus-galli); assay: Test A pre-/postemergence: barnyardgrass; conditions: for Barnyardgrass plant response rating: Postemergence; for Plant response rating, Barnyardgrass: Preemergence
In short: as §1

corn (Zea mays) = assay: Test A pre-/postemergence: corn; conditions: for Corn plant response rating: Postemergence; for Plant response rating, Corn: Preemergence
In short: as §1

[4] = tested on: crabgrass, large (large crabgrass, Digitaria sanguinalis); assay: Test A pre-/postemergence: crabgrass, large; conditions: for Crabgrass, Large plant response rating: Postemergence; for Plant response rating, Crabgrass, Large: Preemergence
In short: as §1

[5] = tested on: morningglory (Ipomoea spp.); assay: Test A pre-/postemergence: morningglory; conditions: for Morningglory plant response rating: Postemergence; for Plant response rating, Morningglory: Preemergence
In short: as §1

[6] = tested on: pigweed (Amaranthus retroflexus); assay: Test A pre-/postemergence: pigweed; conditions: for Pigweed plant response rating: Postemergence; for Plant response rating, Pigweed: Preemergence
In short: as §1

[7] = tested on: wheat (Triticum aestivum); assay: Test A pre-/postemergence: wheat; conditions: for Wheat plant response rating: Postemergence; for Plant response rating, Wheat: Preemergence
In short: as §1

[8] = tested on: sedge, umbrella (small-flower umbrella sedge Cyperus difformis); assay: Test B flooded paddy: sedge, umbrella; conditions: Flood; 250 g ai/ha; applied to paddy water at 2-leaf stage; visually evaluated after 13 to 15 days
Experimental: as §2, §3

[9] = tested on: barnyardgrass (Echinochloa crus-galli); assay: Test B flooded paddy: barnyardgrass; conditions: Flood; 250 g ai/ha; applied to paddy water at 2-leaf stage; visually evaluated after 13 to 15 days
Experimental: as §2, §3

rice (Oryza sativa) [10] = assay: Test B flooded paddy: rice; conditions: Flood; 250 g ai/ha; applied to paddy water at 2-leaf stage; visually evaluated after 13 to 15 days
Experimental: as §2, §3

[11] = tested on: foxtail, giant (giant foxtail, Setaria faberii); assay: Test A pre-/postemergence: foxtail, giant; conditions: for Foxtail, Giant plant response rating: Postemergence; for Plant response rating, Foxtail, Giant: Preemergence
In short: as §1

rice (Oryza sativa) [12] = assay: Test C flooded paddy test: rice; conditions: scale 0 to 100 (0 no effect, 100 complete control)
In short: (§4)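 2-leaf stage plants; pots flooded 3 cm above soil; compound applied into paddy water, depth maintained. Greenhouse 13–15 d. Visual rating vs controls, 0–100 (0 = no effect, 100 = complete control); dash = no result.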

[13] = tested on: barnyardgrass (Echinochloa crus-galli); assay: Test C flooded paddy test: barnyardgrass; conditions: scale 0 to 100 (0 no effect, 100 complete control)
In short: as §4

[14] = tested on: sedge, umbrella (small-flower umbrella sedge, Cyperus difformis); assay: Test C flooded paddy test: sedge, umbrella; conditions: scale 0 to 100 (0 no effect, 100 complete control)
In short: as §4

[15] = tested on: ducksalad (Heteranthera limosa); assay: Test C flooded paddy test: ducksalad; conditions: scale 0 to 100 (0 no effect, 100 complete control)
In short: as §4

[16] = 125 g ai/ha, 0 to 100 scale, 0 is no effect, 100 is complete control
[17] = 500 g ai/ha, visual rating on 0 to 100 scale (0 no effect, 100 complete control), approximately ten days
[18] = 125 g ai/ha, 0 to 100 scale (0 no effect, 100 complete control)
[19] = 500 g ai/ha, 0 to 100 scale, 0 is no effect, 100 is complete control
[20] = 125 g ai/ha, 0 to 100 scale where 0 is no effect and 100 is complete control
[21] = 500 g ai/ha, 0 to 100 scale (0 no effect, 100 complete control)
[22] = Flood (flooded paddy test), 125 g ai/ha, visual rating after 13 to 15 days
[23] = Flood (flooded paddy test), 250 g ai/ha, visual rating after 13 to 15 days

Cc1nn(-c2ccnc(F)c2)nc1C(=O)c1cccc(C(F)(F)F)c1 [Compound 3]
Velvetleaf plant response rating [1, 16]: 50
Velvetleaf plant response rating [1, 17]: 60
Plant response rating, Velvetleaf [1, 18]: 0
Plant response rating, Velvetleaf [1, 19]: 10
Plant response rating, Ducksalad (0 to 100 scale, 0 is no effect, 100 is complete control) [2]: 0
Barnyardgrass plant response rating [3, 16]: 30
Barnyardgrass plant response rating [3, 17]: 50
Plant response rating, Barnyardgrass [3, 18]: 10
Plant response rating, Barnyardgrass [3, 19]: 50
Corn plant response rating (corn (Zea mays); [16]): 20
Corn plant response rating (corn (Zea mays); [17]): 30
Plant response rating, Corn (corn (Zea mays); [18]): 0
Plant response rating, Corn (corn (Zea mays); [19]): 10
Crabgrass, Large plant response rating [4, 16]: 40
Crabgrass, Large plant response rating [4, 17]: 90
Plant response rating, Crabgrass, Large [4, 18]: 90
Plant response rating, Crabgrass, Large [4, 19]: 100
Morningglory plant response rating [5, 16]: 30
Morningglory plant response rating [5, 17]: 100
Plant response rating, Morningglory [5, 18]: 0
Plant response rating, Morningglory [5, 19]: 50
Pigweed plant response rating [6, 16]: 90
Pigweed plant response rating [6, 17]: 100
Plant response rating, Pigweed [6, 18]: 70
Plant response rating, Pigweed [6, 19]: 100
Wheat plant response rating [7, 16]: 30
Wheat plant response rating [7, 17]: 40
Plant response rating, Wheat [7, 18]: 0
Plant response rating, Wheat [7, 19]: 40
Plant response rating, Sedge, Umbrella (0 to 100 scale, 0 is no effect, 100 is complete control) [8]: 0
Plant response rating, Barnyardgrass (0 to 100 scale, 0 is no effect, 100 is complete control) [9]: 0
Plant response rating, Rice (0 to 100 scale, 0 is no effect, 100 is complete control) (rice (Oryza sativa) [10]): 0
Foxtail, Giant plant response rating [11, 16]: 30
Foxtail, Giant plant response rating [11, 17]: 90
Plant response rating, Foxtail, Giant [11, 18]: 90
Plant response rating, Foxtail, Giant [11, 19]: 100

Cc1nn(-c2ccnc(Cl)c2)nc1C(=O)c1cccc(C(F)(F)F)c1 [Compound 4]
Velvetleaf plant response rating [1, 16]: 30
Velvetleaf plant response rating [1, 17]: 30
Plant response rating, Velvetleaf [1, 18]: 0
Plant response rating, Velvetleaf [1, 19]: 0
Plant response rating, Ducksalad (0 to 100 scale, 0 is no effect, 100 is complete control) [2]: 40
Barnyardgrass plant response rating [3, 16]: 20
Barnyardgrass plant response rating [3, 17]: 30
Plant response rating, Barnyardgrass [3, 18]: 10
Plant response rating, Barnyardgrass [3, 19]: 60
Corn plant response rating (corn (Zea mays); [16]): 20
Corn plant response rating (corn (Zea mays); [17]): 30
Plant response rating, Corn (corn (Zea mays); [18]): 0
Plant response rating, Corn (corn (Zea mays); [19]): 0
Crabgrass, Large plant response rating [4, 16]: 30
Crabgrass, Large plant response rating [4, 17]: 70
Plant response rating, Crabgrass, Large [4, 18]: 80
Plant response rating, Crabgrass, Large [4, 19]: 90
Morningglory plant response rating [5, 16]: 20
Morningglory plant response rating [5, 17]: 40
Plant response rating, Morningglory [5, 18]: 0
Plant response rating, Morningglory [5, 19]: 40
Pigweed plant response rating [6, 16]: 80
Pigweed plant response rating [6, 17]: 100
Plant response rating, Pigweed [6, 18]: 50
Plant response rating, Pigweed [6, 19]: 100
Wheat plant response rating [7, 16]: 20
Wheat plant response rating [7, 17]: 40
Plant response rating, Wheat [7, 18]: 0
Plant response rating, Wheat [7, 19]: 30
Plant response rating, Sedge, Umbrella (0 to 100 scale, 0 is no effect, 100 is complete control) [8]: 70
Plant response rating, Barnyardgrass (0 to 100 scale, 0 is no effect, 100 is complete control) [9]: 20
Plant response rating, Rice (0 to 100 scale, 0 is no effect, 100 is complete control) (rice (Oryza sativa) [10]): 0
Foxtail, Giant plant response rating [11, 16]: 20
Foxtail, Giant plant response rating [11, 17]: 40
Plant response rating, Foxtail, Giant [11, 18]: 80
Plant response rating, Foxtail, Giant [11, 19]: 100

Cc1nn(-c2ccccc2Cl)nc1C(=O)c1cccc(C(F)(F)F)c1 [Compound 5]
Velvetleaf plant response rating [1, 16]: 0
Velvetleaf plant response rating [1, 17]: 0
Plant response rating, Velvetleaf [1, 18]: 0
Plant response rating, Velvetleaf [1, 19]: 0
Plant response rating, Ducksalad (0 to 100 scale, 0 is no effect, 100 is complete control) [2]: 0
Barnyardgrass plant response rating [3, 16]: 0
Barnyardgrass plant response rating [3, 17]: 0
Plant response rating, Barnyardgrass [3, 18]: 0
Plant response rating, Barnyardgrass [3, 19]: 0
Corn plant response rating (corn (Zea mays); [16]): 0
Corn plant response rating (corn (Zea mays); [17]): 0
Plant response rating, Corn (corn (Zea mays); [18]): 0
Plant response rating, Corn (corn (Zea mays); [19]): 0
Crabgrass, Large plant response rating [4, 16]: 0
Crabgrass, Large plant response rating [4, 17]: 0
Plant response rating, Crabgrass, Large [4, 18]: 0
Plant response rating, Crabgrass, Large [4, 19]: 0
Morningglory plant response rating [5, 16]: 0
Morningglory plant response rating [5, 17]: 0
Plant response rating, Morningglory [5, 18]: 0
Plant response rating, Morningglory [5, 19]: 0
Pigweed plant response rating [6, 16]: 10
Pigweed plant response rating [6, 17]: 30
Plant response rating, Pigweed [6, 18]: 0
Plant response rating, Pigweed [6, 19]: 0
Wheat plant response rating [7, 16]: 0
Wheat plant response rating [7, 17]: 0
Plant response rating, Wheat [7, 18]: 0
Plant response rating, Wheat [7, 19]: 0
Plant response rating, Sedge, Umbrella (0 to 100 scale, 0 is no effect, 100 is complete control) [8]: 0
Plant response rating, Barnyardgrass (0 to 100 scale, 0 is no effect, 100 is complete control) [9]: 0
Plant response rating, Rice (0 to 100 scale, 0 is no effect, 100 is complete control) (rice (Oryza sativa) [10]): 0
Foxtail, Giant plant response rating [11, 16]: 0
Foxtail, Giant plant response rating [11, 17]: 0
Plant response rating, Foxtail, Giant [11, 18]: 0
Plant response rating, Foxtail, Giant [11, 19]: 0

CCc1nn(-c2ccc(C(F)(F)F)cc2)nc1Cn1cc(C(F)(F)F)nc1Cl [Compound 122]
Velvetleaf plant response rating [1, 16]: 80
Velvetleaf plant response rating [1, 17]: 100
Plant response rating, Velvetleaf [1, 20]: 30
Plant response rating, Velvetleaf [1, 21]: 60
Barnyardgrass plant response rating [3, 16]: 40
Barnyardgrass plant response rating [3, 17]: 70
Plant response rating, Barnyardgrass [3, 20]: 20
Plant response rating, Barnyardgrass [3, 21]: 70
Corn plant response rating (corn (Zea mays); [16]): 20
Corn plant response rating (corn (Zea mays); [17]): 30
Plant response rating, Corn (corn (Zea mays); [20]): 10
Plant response rating, Corn (corn (Zea mays); [21]): 20
Crabgrass, Large plant response rating [4, 16]: 80
Crabgrass, Large plant response rating [4, 17]: 90
Plant response rating, Crabgrass, Large [4, 20]: 90
Plant response rating, Crabgrass, Large [4, 21]: 100
Morningglory plant response rating [5, 16]: 90
Morningglory plant response rating [5, 17]: 100
Plant response rating, Morningglory [5, 20]: 20
Plant response rating, Morningglory [5, 21]: 50
Pigweed plant response rating [6, 16]: 100
Pigweed plant response rating [6, 17]: 100
Plant response rating, Pigweed [6, 20]: 90
Plant response rating, Pigweed [6, 21]: 100
Plant response rating, Rice (rice (Oryza sativa) [12]; [22]): 25
Plant response rating, Rice (rice (Oryza sativa) [12]; [23]): 30
Plant response rating, Rice (rice (Oryza sativa) [12]; Flood, 31 g ai/ha): 0
Plant response rating, Rice (rice (Oryza sativa) [12]; Flood, 62 g ai/ha): 0
Wheat plant response rating [7, 16]: 20
Wheat plant response rating [7, 17]: 30
Plant response rating, Wheat [7, 20]: 0
Plant response rating, Wheat [7, 21]: 20
Plant response rating, Barnyardgrass [13, 22]: 40
Plant response rating, Barnyardgrass [13, 23]: 40
Plant response rating, Barnyardgrass ([13]; Flood, 31 g ai/ha): 10
Plant response rating, Barnyardgrass ([13]; Flood, 62 g ai/ha): 20
Plant response rating, Sedge, Umbrella [14, 22]: 85
Plant response rating, Sedge, Umbrella [14, 23]: 85
Plant response rating, Sedge, Umbrella ([14]; Flood, 31 g ai/ha): 70
Plant response rating, Sedge, Umbrella ([14]; Flood, 62 g ai/ha): 75
Foxtail, Giant plant response rating [11, 16]: 60
Foxtail, Giant plant response rating [11, 17]: 90
Plant response rating, Foxtail, Giant [11, 20]: 90
Plant response rating, Foxtail, Giant [11, 21]: 100
Plant response rating, Ducksalad [15, 22]: 60
Plant response rating, Ducksalad [15, 23]: 65
Plant response rating, Ducksalad ([15]; Flood, 31 g ai/ha): 0
Plant response rating, Ducksalad ([15]; Flood, 62 g ai/ha): 0
